Laboratory results reported in patent publication US20080095741A1, “R-(+)-alpha-liponic acid for the prevention of diabetes” (MEDA Pharma GmbH & Co. KG, priority 2004, published 2008).
Read-outs that look alike come from different tables or passages of the source.

What was measured:
[1] = system: isolated pancreatic cells; details: pre-incubation; radical-generating system or activated macrophages; Burkart et al., 1993; cited from earlier work
[2] = system: biobreed rat; test: Preventive therapy in the biobreed rat model of diabetes (occurrence and progression); type: in vivo
Excerpt: The experiments for the primary and secondary prevention of diabetes with α-lipoic acid or its derivatives were investigated using a suitable model system. The biobreed rat is a model of diabetes in which a primary loss of p cells also occurs on account of autoimmune processes. […] A secondary stress of the p cells occurs with the simultaneous development of hyperglycemia on account of the increasing glucose toxicity. Thus, pathogenic processes are reflected in this model that stand in the foreground of the progression of the disease and contribute to the progression in all forms of diabetes.
A preventive therapy with racemic α-lipoic acid as well as the two enantiomers took place in the biobreed rat.
This allows the conclusion that for the primary and secondary prevention of diabetes only the R-configured, dextrorotary enantiomer is suitable, as well as derivatives derived from it with intact dithiolane structure. This can be used just as suitably for the prevention of the secondary loss of function of β cells after transplantation.

[3] = system: NOD mouse; details: Faust et al., 1994, cited from earlier work
[4] = system: β cells; details: Kaneto et al., 1999; cited from earlier work
[5] = system: Biobreed rats; test: Biobreed rat, development and progression of diabetes determined by daily measuring of the blood sugar as surrogate; type: in vivo; details: chronic ip, tromethamine salt, blood from the caudal vein
Experimental: Biobreed rats (male and female, 130-180 g) 5-19 weeks old were chronically treated (ip) with different doses of R-(+)-α-lipoic acid as tromethamine salt. The development and progression of diabetes was determined by daily measuring of the blood sugar (taken from the caudal vein) as surrogate. […] Biobreed rats (male and female, 130-180 g) 5-19 weeks old were each chronically treated with 36.6 mg of different lipoic acid derivatives (as tromethamine salt (ip)). with as tromethamine salt. The development and progression of diabetes was determined by daily measuring of the blood sugar (taken from the caudal vein) as surrogate.

[6] = system: Biobreed rats; test: Biobreed rat, survival time and water consumption as further surrogates; type: in vivo; details: dose-dependent
Experimental: The survival time and the water consumption were determined as further surrogates for the occurrence and deterioration of diabetes.

[7] = system: Biobreed rats; test: Biobreed rat, development and progression of diabetes determined by weight loss as surrogate; type: in vivo; details: chronic ip, tromethamine salt
Experimental: Biobreed rats (male and female, 130-180 g) 5-19 weeks old were chronically treated (ip) with different doses of R-(+)-α-lipoic acid as tromethamine salt. The development and progression of diabetes was determined by weight loss as surrogate. […] Biobreed rats (male and female, 130-180 g) 5-19 weeks old were each chronically treated (ip) with 36.6 mg of different lipoic acid derivatives (as tromethamine salt). The development and progression of diabetes was determined by daily weight measuring as surrogate.

Molecule: O=C(O)CCCC[C@@H](S)CCS (racemic) [racemic dihydrolipoic acid]
- protection of pancreatic cells from lysis [1]: partially protected from lysis

Molecule: O=C(O)CCCCC1CCSS1 (racemic) [racemic mixture]
- occurrence of diabetes [2]: remained without effect
- progression of manifest diabetes [2]: remained without effect
- infiltration with immunocompetent cells into pancreatic tissue (surrogate of β cell destruction) ([3]; chronic administration, without cytotoxin): had no influence
- protective action ([3]; with additional intoxication with cyclophosphamide): protective action

Molecule: O=C(O)CCCC[C@H]1CCSS1 (single isomer, unassigned) [S-(−)- enantiomer]
- occurrence of diabetes [2]: remained without effect
- progression of manifest diabetes [2]: remained without effect

Molecule: CC(=O)N[C@@H](CS)C(=O)O [N-acetylcystein]
- effect on the glucose toxicity of β cells [4]: a certain protective action

Molecule: O=C(O)CCCCC1CCSS1 (stereo not drawn) [R-(+)-α-lipoic acid, 1,2-dithiolane-3-pentanoic acid]
- occurrence of diabetes ([2]; listed as R-(+)-enantiomer): can be delayed
- progression of manifest diabetes ([2]; listed as R-(+)-enantiomer): distinctly attenuated in a dose-dependent manner
- progression of a rise in blood sugar ([5]; Example 3, different doses): delayed progression of a rise in blood sugar in a dose-dependent manner
- progression of diabetes (daily blood sugar as surrogate) ([5]; Example 4, 36.6 mg): had an effect on the progression of diabetes
- increase of the consumption of water [6]: positive effect
- survival time [6]: positive effect
- progression of diabetes (weight loss as surrogate) ([7]; Example 1, different doses): delayed progression of diabetes in a dose-dependent manner
- progression of diabetes (daily weight measuring as surrogate) ([7]; Example 2, 36.6 mg): had an effect on the progression of diabetes

Molecule: vitamin E
- effect on the glucose toxicity of β cells [4]: no effect
